Experimental data reported in US7501423B2, “Tubulin inhibitor and process for its preparation” (Wyeth, priority 2005, dated 2009).
Where a name gives a salt, the structure may show the parent alone.

Experiment: hygroscopic character of the salt forms
Format: physicochemical
Settings: solid salt form; no method or figures given

Molecule	hygroscopicity (hygroscopic character of the salt)
6-chloro-5-{2,6-difluoro-4-[3-(methylamino)propoxy]phenyl}-2-pyrazin-2-yl-N-[(1S)-2,2,2-trifluoro-1-methylethyl]pyrimidin-4-amine hemifumarate	essentially avoids the disadvantage of the hygroscopic character
CNCCCOc1cc(F)c(-c2c(Cl)nc(-c3cnccn3)nc2N[C@@H](C)C(F)(F)F)c(F)c1 [hydrochloride, 6-chloro-5-{2,6-difluoro-4-[3-(methylamino)propoxy]phenyl}-2-pyrazin-2-yl-N-[(1S)-2,2,2-trifluoro-1-methylethyl]pyrimidin-4-amine]	very hygroscopic
